Source: US4303664A, “Novel penicillin derivatives containing a coumarin nucleus and medicines containing the same” (Teijin Limited, priority 1978, dated 1981)
Converted amounts (≈) assume the structure as drawn.

Experiments:
Assay type in all cases: cell-based
Morganella var. G-2 = assay: Bactericidal test (MIC), Morganella var. G-2; conditions: VAR.G2; (9) Morganella var. G-2; read-out: MIC
Source text: (§1) Results of bactericidal tests (MIC, r/ml) on the penicillin derivatives of this invention prepared in the above examples are shown in the following table.

[1] = test system: Escherichia Coli NIHJ JC-2; assay: Bactericidal test (MIC), Escherichia Coli NIHJ JC-2; conditions: NIHJJC2; (5) Escherichia Coli NIHJ JC-2
Source text: as §1

Bacillus subtilis = assay: Bactericidal test (MIC), Bacillus subtilis; conditions: (3) Bacillus subtilis
Source text: as §1

[2] = test system: Pseudomonas aeruginosa 130; assay: Bactericidal test (MIC), Pseudomonas aeruginosa 130; conditions: (16) Pseudomonas aeruginosa 130
Source text: as §1

[3] = test system: Staphylococcus aureus 209-p; assay: Bactericidal test (MIC), Staphylococcus aureus 209-p; conditions: (1) Staphylococcus aureus 209-p
Source text: as §1

Serratia G-18 = assay: Bactericidal test (MIC), Serratia G-18; conditions: G18; (11) Serratia G-18; read-out: MIC
Source text: as §1

Enterobactor cloacae 147 = assay: Bactericidal test (MIC), Enterobactor cloacae 147; conditions: (7) Enterobactor cloacae 147
Source text: as §1

[4] = test system: Pseudomonas aeruginosa IFO-3080; assay: Bactericidal test (MIC), Pseudomonas aeruginosa IFO-3080; conditions: IFO3080; (12) Pseudomonas aeruginosa IFO-3080; read-out: MIC
Source text: as §1

[5] = test system: Staphylococcus aureus 1248; assay: Bactericidal test (MIC), Staphylococcus aureus 1248; conditions: (2) Staphylococcus aureus 1248; read-out: MIC
Source text: as §1

[6] = test system: Pseudomonas aeruginosa Tid-53; assay: Bactericidal test (MIC), Pseudomonas aeruginosa Tid-53; conditions: TID53; (14) Pseudomonas aeruginosa Tid-53
Source text: as §1

[7] = test system: Klebsiella neumoniae ATCC10031; assay: Bactericidal test (MIC), Klebsiella neumoniae ATCC10031; conditions: (6) Klebsiella neumoniae ATCC10031; read-out: MIC
Source text: as §1

[8] = test system: Enterobacter cloacae IF012937; assay: Bactericidal test (MIC), Enterobacter cloacae IF012937; conditions: (8) Enterobacter cloacae IF012937
Source text: as §1

[9] = test system: Salmonella typhimurium G-20; assay: Bactericidal test (MIC), Salmonella typhimurium G-20; conditions: Salmonella enterica; (4) Salmonella typhimurium G-20
Source text: as §1

[10] = test system: Pseudomonas aeruginosa GN-315; assay: Bactericidal test (MIC), Pseudomonas aeruginosa GN-315; conditions: GN315; (15) Pseudomonas aeruginosa GN-315
Source text: as §1

[11] = test system: Pseudomonas aeruginosa 0-37; assay: Bactericidal test (MIC), Pseudomonas aeruginosa 0-37; conditions: 037; (13) Pseudomonas aeruginosa 0-37
Source text: as §1

Rettgerella var. Tid-21 = assay: Bactericidal test (MIC), Rettgerella var. Tid-21; conditions: (10) Rettgerella var. Tid-21; read-out: MIC
Source text: as §1

Row | SMILES | MIC (Morganella var. G-2) | MIC [1] | MIC (Bacillus subtilis) | MIC [2] | MIC [3] | MIC (Serratia G-18) | MIC (Enterobactor cloacae 147) | MIC [4] | MIC [5] | MIC [6] | MIC [7] | MIC [8] | MIC [9] | MIC [10] | MIC [11] | MIC (Rettgerella var. Tid-21)
1 | CC1(C)S[C@@H]2[C@H](NC(=O)[C@H](NC(=O)c3cc4cc([N+](=O)[O-])ccc4oc3=O)c3ccccc3)C(=O)N2[C@H]1C(=O)O [Example 13, D(-)-α-(6-Nitrocoumarin-3-carbonamido)benzylpenicillin] | 6.25 µg/mL (≈ 11 µM) | < 0.4 µg/mL | < 0.4 µg/mL | 6.25 µg/mL (≈ 11 µM) | < 0.4 µg/mL | 50 µg/mL (≈ 88.3 µM) | 25 µg/mL (≈ 44.1 µM) | 6.25 µg/mL (≈ 11 µM) | 6.25 µg/mL (≈ 11 µM) | 25 µg/mL (≈ 44.1 µM) | 12.5 µg/mL (≈ 22.1 µM) | 12.5 µg/mL (≈ 22.1 µM) | < 0.4 µg/mL | 12.5 µg/mL (≈ 22.1 µM) | 100 µg/mL (≈ 177 µM) | 50 µg/mL (≈ 88.3 µM)
2 | COC(=O)c1cccc2cc(C(=O)N[C@@H](C(=O)N[C@@H]3C(=O)N4[C@@H]3SC(C)(C)[C@@H]4C(=O)O)c3ccccc3)c(=O)oc12 [Example 14, D(-)-α-(8-Methoxycarbonylcoumarin-3-carbonamido)benzylpenicillin] | 1.56 µg/mL (≈ 2.69 µM) | < 0.4 µg/mL | < 0.4 µg/mL | 3.13 µg/mL (≈ 5.4 µM) | < 0.4 µg/mL | 12.5 µg/mL (≈ 21.6 µM) | 25 µg/mL (≈ 43.1 µM) | 3.13 µg/mL (≈ 5.4 µM) | 3.13 µg/mL (≈ 5.4 µM) | 25 µg/mL (≈ 43.1 µM) | 1.56 µg/mL (≈ 2.69 µM) | 6.25 µg/mL (≈ 10.8 µM) | < 0.4 µg/mL | 12.5 µg/mL (≈ 21.6 µM) | 100 µg/mL (≈ 173 µM) | 12.5 µg/mL (≈ 21.6 µM)
3 | Cc1cccc2cc(C(=O)N[C@@H](C(=O)N[C@@H]3C(=O)N4[C@@H]3SC(C)(C)[C@@H]4C(=O)O)c3ccccc3)c(=O)oc12 [Example 15, D(-)-α-(8-Methylcoumarin-3-carbonamido)benzylpenicillin] | 100 µg/mL (≈ 187 µM) | < 0.4 µg/mL | < 0.4 µg/mL | 25 µg/mL (≈ 46.7 µM) | < 0.4 µg/mL | 200 µg/mL (≈ 373 µM) | 200 µg/mL (≈ 373 µM) | 12.5 µg/mL (≈ 23.3 µM) | 6.25 µg/mL (≈ 11.7 µM) | 100 µg/mL (≈ 187 µM) | 6.25 µg/mL (≈ 11.7 µM) | 100 µg/mL (≈ 187 µM) | < 0.4 µg/mL | 200 µg/mL (≈ 373 µM) | 200 µg/mL (≈ 373 µM) | 50 µg/mL (≈ 93.4 µM)
4 | CC(=O)Oc1ccc2oc(=O)c(C(=O)N[C@@H](C(=O)N[C@@H]3C(=O)N4[C@@H]3SC(C)(C)[C@@H]4C(=O)O)c3ccc(O)cc3)cc2c1 [Example 17, D(-)-α-(6-Acetoxycoumarin-3-carbonamido)-p-hydroxybenzylpenicillin] | 12.5 µg/mL (≈ 21 µM) | < 0.4 µg/mL | < 0.4 µg/mL | 1.56 µg/mL (≈ 2.62 µM) | < 0.4 µg/mL | 50 µg/mL (≈ 84 µM) | 12.5 µg/mL (≈ 21 µM) | 0.8 µg/mL (≈ 1.34 µM) | 3.13 µg/mL (≈ 5.26 µM) | 6.25 µg/mL (≈ 10.5 µM) | 3.13 µg/mL (≈ 5.26 µM) | 12.5 µg/mL (≈ 21 µM) | < 0.4 µg/mL | 3.13 µg/mL (≈ 5.26 µM) | 25 µg/mL (≈ 42 µM) | 3.13 µg/mL (≈ 5.26 µM)
5 | CCOc1cccc2cc(C(=O)N[C@@H](C(=O)N[C@@H]3C(=O)N4[C@@H]3SC(C)(C)[C@@H]4C(=O)O)c3ccccc3)c(=O)oc12 [Example 19, D(-)-α-(8-Ethoxycoumarin-3-carbonamido)benzylpenicillin] | 3.13 µg/mL (≈ 5.53 µM) | < 0.4 µg/mL | < 0.4 µg/mL | 1.56 µg/mL (≈ 2.76 µM) | < 0.4 µg/mL | 12.5 µg/mL (≈ 22.1 µM) | 6.25 µg/mL (≈ 11.1 µM) | 1.56 µg/mL (≈ 2.76 µM) | 3.13 µg/mL (≈ 5.53 µM) | 3.13 µg/mL (≈ 5.53 µM) | < 0.4 µg/mL | 6.25 µg/mL (≈ 11.1 µM) | < 0.4 µg/mL | 6.25 µg/mL (≈ 11.1 µM) | 12.5 µg/mL (≈ 22.1 µM) | 3.13 µg/mL (≈ 5.53 µM)
6 | CC(=O)Nc1ccc2oc(=O)c(C(=O)N[C@@H](C(=O)N[C@@H]3C(=O)N4[C@@H]3SC(C)(C)[C@@H]4C(=O)O)c3ccccc3)cc2c1 [Example 20, D(-)-α-(6-Acetylaminocoumarin-3-carbonamido)benzylpenicillin] | 6.25 µg/mL (≈ 10.8 µM) | < 0.4 µg/mL | < 0.4 µg/mL | 1.56 µg/mL (≈ 2.7 µM) | < 0.4 µg/mL | 50 µg/mL (≈ 86.4 µM) | 6.25 µg/mL (≈ 10.8 µM) | 3.13 µg/mL (≈ 5.41 µM) | 3.13 µg/mL (≈ 5.41 µM) | 6.25 µg/mL (≈ 10.8 µM) | 1.56 µg/mL (≈ 2.7 µM) | 6.25 µg/mL (≈ 10.8 µM) | < 0.4 µg/mL | 6.25 µg/mL (≈ 10.8 µM) | 50 µg/mL (≈ 86.4 µM) | 6.25 µg/mL (≈ 10.8 µM)
